Among the data in PubChem BioAssay (NCI) are TGI and GI50 values, retold here.

SMILES strings stand for the structures. Where “and” joins values, the source holds several entries; their conditions need not be identical. Equal entries are not always repeated.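 Step 1: Grow cells in 96-well plates. Step 2: Expose to compound for 48 hours at 5 concentrations. Step 3: Interpolate endpoints linearly; if unreached, use highest concentration. Here, GI50 denotes the concentration required for 50% inhibition of growth. TGI marks complete inhibition of growth.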

Common to all, as to assay: NCI-60 cell line screen, 48 h
Test [1] relates to DLD-1 colon.
The test system of test [2] is HOP-92 NSCLC.
The subject of test [3] is KM12 colon.
Test [4] concerns MALME-3M melanoma.
Test [5] has as its system NCI-H226 lung.
Test [6] relates to NCI-H23 lung.
Test [7] deals with RXF 393 renal.
Test [8] has as its system SK-MEL-2 melanoma.
Test [9] relates to SN12C renal.
The subject of test [10] is MCF7 breast.

`O=C([O-])c1ccccc1Nc1ccccc1C(=O)[O-].[OH3+].[Zn+2]`: the TGI in test [1] is more than 83.7 µM; in test [2] it was 45.7 µM; in [3], more than 100 µM; in test [4], 50.5 µM; in test [5], 67 µM; in [6], 28.9 µM. In addition, the TGI in [7] is 42.7 µM; in [8] it was 40.4 µM; in test [9] it was more than 100 µM.

As to `COc1cc(/C=C2\C(=O)Nc3ccc(Cl)cc32)cc(OC)c1OC`, the GI50 in test [2] was 3.39 µM; in [3], 4.07 µM; in test [4], 32 µM; in [10], 26 µM; in test [5], 51.3 µM; in test [6] it was 12.9 µM. Besides, the GI50 in [7] was 1.82 µM; in test [8], 31.9 µM; in [9], 26.5 µM. For the same compound, the TGI was 22.9 µM in [2]; more than 100 µM in test [3]; more than 100 µM in test [4]; more than 100 µM in test [10]; more than 100 µM in [5]; 39.2 µM in [6]. The TGI in test [7] is 8.22 µM; in test [8] it was more than 100 µM; in [9], more than 100 µM.

As for `O=C1NCN(c2ccccc2)C12CCN(CCCN1CCN(CCOC(c3ccccc3)c3ccccc3)CC1)CC2`, the TGI was 5.54 µM in [2]; 5.97 µM in [3]; 5.54 µM in test [4]; 6.23 µM in [10]; 7.35 µM in test [5]; 7.46 µM in test [6]. Besides, the TGI in test [7] worked out at 4.68 µM; in test [8], 6.75 µM; in [9], 7.14 µM.

Turning to `CCCCC1Nc2ccccc2-c2ccnc(Cl)c21` (stereo not drawn), the TGI in test [2] is 40.9 µM; in test [3], 69 µM; in [4], 51 µM; in [10], more than 100 µM; in [5], 39.9 µM; in [6], 31.4 µM. Moreover, the results for the TGI in test [7], in test [8] and in [9] were 40.8 µM, 35.8 µM and 51 µM, respectively.

As for `Cc1cc(C)n(CN(CCCCO)Cn2nc(C)cc2C)n1`, the TGI in [2] came to 81 µM; in test [3], 60.6 µM; in test [4], 57.3 µM; in test [10] it was 68.3 µM; in [6], 50.6 µM; in [7], 39 µM. Moreover, the results for the TGI in test [8] and in test [9] were 41.7 µM and 67 µM, respectively.

Turning to `N=C1c2ccccc2C(=O)c2c(NCCNCCO)ccc(O)c21`, the TGI is 22.3 µM in test [1]; more than 71.2 µM in test [2]; 33.1 µM in [3]; 35.8 µM in test [4]; 44.7 µM in test [5]; 25.7 µM in test [6]. Also, the results for the TGI in [7], in [8] and in [9] were 18 µM, 33.5 µM and 31.7 µM, respectively.

For the compound `COC1=CC(c2ccc[nH]2)=N/C1=C\c1[nH]c(C)c(CC(=O)NCc2ccccc2)c1C`, the GI50 in [2] was 1.4 µM; in test [3], 1.12 µM; in [7], 1.55 µM; in [8] it was 1.71 µM. The TGI was determined as 2.94 µM in test [2], 2.59 µM in [3], 2.95 µM in test [7] and 3.29 µM in test [8].

On to `COc1cc2c(c(OC)c1OC)-c1ccc(OC)c(=O)cc1C(NC(=O)CCCCCNc1ccc(N=[N+]=[N-])cc1[N+](=O)[O-])CC2` (stereo not drawn), for which the TGI is 26.1 µM in test [4]; more than 21.6 µM in test [10]; less than 0.01 µM in test [5]; more than 100 µM in test [6]; 6.67 µM in [7]; less than 0.01 µM in [8]. The TGI in test [9] was 11.5 µM.

Take `O=S(=O)(O)c1ccc(N=Nc2ccc(N=Nc3c(O)ccc4ccc(S(=O)(=O)O)cc34)cc2)cc1`: the TGI in test [2], in test [3], in [4], in [10], in test [5] and in test [6] was more than 100 µM in each case. Besides, the TGI in test [7], in test [8] and in [9] was more than 100 µM each time.

Consider `CC(C)(C)c1ccc(NS(=O)(=O)c2ccc(N)cc2)cc1`, for which the TGI in test [3] is more than 100 µM; in test [4], 39.6 µM; in [10], 39 µM; in [5], 45.8 µM; in test [6], 67.9 µM; in test [7], 94.1 µM. Also, the TGI in [8] came to 36.5 µM; in test [9] it was 48.6 µM.

Turning to `COc1ccccc1N1C(=O)CSC1c1cccc(Oc2ccccc2)c1` (stereo not drawn), the TGI in [2] came out at 26.5 µM; in test [3], 75.6 µM; in test [4], 30.6 µM; in test [10], 37.1 µM; in [5], 36.9 µM; in test [6] it was 52.9 µM. The TGI in test [7] worked out at 33.6 µM; in test [8], 29.9 µM; in [9] it was 31.9 µM.

Take `COc1ccc2c(c1)C(=O)c1c-2n(CCCN=[N+]=[N-])c(=O)c2cc([N+](=O)[O-])ccc12`: the GI50 in [2] is 0.0646 µM; in test [3], 0.558 µM and 3.4 µM; in [4] it was 0.422 µM; in test [10], less than 0.001 µM; in [5], 0.268 µM; in test [6], 0.244 µM. Further, the values for the GI50 in test [7], in test [8] and in test [9] were 0.00139 µM, 14.5 µM and 0.314 µM, respectively. Moreover, the TGI is more than 100 µM in test [3]; 9.88 µM in [4]; 4.83 µM in test [10]; 0.874 µM in [5]; 18 µM in test [6]; 39.1 µM in [8]. The TGI in [9] is 2.01 µM.

`O=C(N/N=C\c1ccc(N(CCCl)CCCl)cc1)c1cccnc1`: the GI50 in test [2] was 30.6 µM; in test [3], 61.9 µM; in [4] it was 55 µM; in test [10] it was 20.9 µM; in test [5], 2.13 µM; in [6], 15.8 µM. Also, the GI50 was 19.7 µM in [7], more than 100 µM in test [8] and 20.6 µM in test [9]. Moreover, the TGI in test [2] is more than 100 µM; in test [3], more than 100 µM; in test [4] it was more than 100 µM; in test [10] it was more than 100 µM; in [5] it was 11.4 µM; in test [6], more than 100 µM. Besides, the TGI was 85.7 µM in [7], more than 100 µM in test [8] and more than 100 µM in [9].

Take `N/C(=C\c1ccc(/C=C(\NC(=O)c2ccccc2)c2nc3c([nH]2)C(=O)c2ccccc2C3=O)cc1)c1nc2c([nH]1)C(=O)c1ccccc1C2=O`: the TGI was 33 µM in test [1]; 22.2 µM in [2]; 29 µM in test [3]; 27 µM in [5]; 32.8 µM in test [6]; 26.2 µM in test [7]. The same compound showed a TGI in [9] of 32.8 µM.

Regarding `CN(CCO)CCC1COc2ccccc2O1` (stereo not drawn), the TGI in test [3], in test [4], in test [10], in test [5], in test [6] and in test [7] was more than 10 µM throughout. For the same compound, the TGI in test [8] and in test [9] was more than 10 µM throughout.

With `N#CC1(C#N)C(=O)c2ccncc2C1=O`, the TGI in test [2], in test [3], in test [4], in test [10], in [5] and in test [6] was more than 100 µM throughout. The TGI in [7], in [8] and in test [9] was more than 100 µM throughout.

With `N#C[S-].[Ce+3].c1ccc(-c2ccccn2)nc1.c1ccc(-c2ccccn2)nc1.c1ccc(-c2ccccn2)nc1`, the GI50 was 5.26 µM in test [1]; 38 µM in test [3]; 23 µM in [4]; 18 µM in test [5]; 26.9 µM in [6]; 22.7 µM in test [7]. The GI50 was 25.4 µM in test [8] and 12.8 µM in test [9]. Also, the TGI in test [1] was more than 100 µM; in [3], more than 100 µM; in [4], 60.7 µM; in test [5] it was 63.1 µM; in test [6], 97.3 µM; in test [7] it was 98.4 µM. Moreover, the figures for the TGI in test [8] and in test [9] were 63.1 µM and more than 100 µM, respectively.

Turning to `CCOC(=O)NC(=O)c1cn(CCN(CCO)C(=O)NCCCCCCNC(=O)N(CCO)CCn2cc(C(=O)NC(=O)OCC)c(=O)[nH]c2=O)c(=O)[nH]c1=O`, the TGI in [1], in [2], in [3], in test [4], in test [10] and in [5] was more than 100 µM throughout. In addition, the TGI in test [6], in test [7], in [8] and in [9] was more than 100 µM throughout.

With `Brc1ccc2nc(-c3cccs3)nc(N3CCN(c4ccccc4)CC3)c2c1`, the TGI in test [2], in [3], in test [4], in [10], in test [5] and in test [6] was more than 100 µM each time. In addition, the TGI in [8] and in [9] was more than 100 µM throughout.

As to `COc1nc2ccc(Cl)c(C(O)c3ccccc3)c2nc1OC` (stereo not drawn), the TGI in test [2] was 60.6 µM; in test [3], more than 100 µM; in test [4], more than 100 µM; in test [10], 87.6 µM; in test [5], 54.7 µM; in test [6] it was 61.2 µM. In addition, the TGI was determined as 41.3 µM in test [7], 45 µM in [8] and 40.3 µM in test [9].

As to `COC(Cc1cc(C(O)(c2ccc(C(C)(C)C)cc2)c2cc(CC(OC)(c3cc(C(OC)(c4ccc(C(C)(C)C)cc4)c4ccc(C(C)(C)C)cc4)c(C)cc3C)c3cc(C(OC)(c4ccc(C(C)(C)C)cc4)c4ccc(C(C)(C)C)cc4)c(C)cc3C)c(C)cc2C)c(C)cc1C)(c1cc(C(OC)(c2ccc(C(C)(C)C)cc2)c2ccc(C(C)(C)C)cc2)c(C)cc1C)c1cc(C(OC)(c2ccc(C(C)(C)C)cc2)c2ccc(C(C)(C)C)cc2)c(C)cc1C`, the TGI in test [2], in test [4], in test [10], in [5], in [6] and in [7] was more than 75 µM in each case. Further, the TGI in test [8] and in test [9] was more than 75 µM each time.

As for `COc1c(O)cc2c(c1O)C(=O)C(Cc1ccc(O)cc1)CO2` (stereo not drawn), the TGI in test [2], in test [3], in [4], in test [10], in test [6] and in [7] was more than 100 µM in each case. Besides, the TGI in [8] and in test [9] was more than 100 µM in each case.

In the case of `CC1=C/C(=N\NS(=O)(=O)c2ccc([N+](=O)[O-])cc2)CC(C)(C)C1`, the TGI in [2] is 75.6 µM; in [3], more than 100 µM; in [4] it was more than 100 µM; in test [10] it was more than 100 µM; in test [6] it was more than 100 µM; in test [7], more than 100 µM. In addition, the TGI in [8] and in [9] was more than 100 µM throughout.
